The values that follow come from patent US20240335429A1, “MOLECULAR GLUE AND SALL4 DEGRADER” (National University of Singapore, priority 2021, published 2024).

Read-outs that look alike come from different tables or passages of the source.

The target in data set [1] is T1, SALL4A (Homo sapiens, UniProt Q9UJQ4).
T1 construct: endogenous in cells; host or cells: SNU-398 HCC cells
T1 sequence (Q9UJQ4 1-1053): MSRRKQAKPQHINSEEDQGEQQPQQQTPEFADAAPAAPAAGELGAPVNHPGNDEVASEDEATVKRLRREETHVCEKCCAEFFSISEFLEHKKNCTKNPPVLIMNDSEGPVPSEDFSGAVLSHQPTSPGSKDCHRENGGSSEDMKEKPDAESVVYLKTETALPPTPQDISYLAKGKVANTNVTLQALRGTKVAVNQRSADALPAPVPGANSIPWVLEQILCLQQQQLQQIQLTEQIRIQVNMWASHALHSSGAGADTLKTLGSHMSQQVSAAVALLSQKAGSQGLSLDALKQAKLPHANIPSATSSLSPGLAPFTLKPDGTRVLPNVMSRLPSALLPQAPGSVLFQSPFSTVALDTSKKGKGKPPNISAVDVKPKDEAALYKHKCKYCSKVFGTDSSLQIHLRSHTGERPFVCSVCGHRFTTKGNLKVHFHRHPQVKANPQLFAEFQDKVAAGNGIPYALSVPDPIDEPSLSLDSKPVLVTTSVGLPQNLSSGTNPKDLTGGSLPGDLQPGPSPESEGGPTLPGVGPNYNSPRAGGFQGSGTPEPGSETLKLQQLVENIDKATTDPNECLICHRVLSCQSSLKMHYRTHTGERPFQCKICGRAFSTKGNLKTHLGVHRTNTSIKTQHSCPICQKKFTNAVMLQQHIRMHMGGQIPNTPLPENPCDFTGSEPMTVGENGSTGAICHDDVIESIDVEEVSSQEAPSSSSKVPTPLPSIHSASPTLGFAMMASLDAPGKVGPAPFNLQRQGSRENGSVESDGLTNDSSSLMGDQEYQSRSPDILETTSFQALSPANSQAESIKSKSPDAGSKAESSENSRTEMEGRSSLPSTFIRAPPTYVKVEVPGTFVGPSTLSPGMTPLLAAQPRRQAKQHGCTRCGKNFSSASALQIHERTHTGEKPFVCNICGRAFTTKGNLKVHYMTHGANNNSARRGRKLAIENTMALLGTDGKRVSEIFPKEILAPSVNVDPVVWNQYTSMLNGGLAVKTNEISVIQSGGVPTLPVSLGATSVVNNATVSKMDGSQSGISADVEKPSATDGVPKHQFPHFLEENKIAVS
In words: Immunoblot of endogenous SALL4A in SNU-398 HCC cells. The conditions noted are these: SNU-398 cells, 24 h, immunoblot quantification. In kind it is cell-based. As to the method:
(§1) RIPA buffer containing freshly added protease inhibitors (2 mM PMSF) and protease inhibitor cocktail was used for cell lysis. The lysed cells were incubated for 10 min on ice and subsequently centrifuged at 4° C. for 10 min at 14,000 rpm. The protein concentrations of cell lysates were assessed using Bradford Assay as per manufacturer's instructions. The samples were denatured using 4× Sample buffer at 95° C. for 5 min. The samples were size resolved using polyacrylamide gel (8%) and Mini-PROTEAN Tetra Cell module. The size-resolved proteins were transferred onto PVDF via electroblotting using Mini Trans-Blot® module. The membrane was blocked using 5% BSA in TBST. The membrane was incubated with appropriate primary antibody (overnight) and secondary antibody (1 h). Immobilon Crescendo Western HRP substrate was used for signal development and images were acquired using darkroom development techniques.
A head-to-head comparison between the newly discovered SALL4 degrader QE-18-WG07 and IMiDs (Pomalidomide and Thalidomide) was performed. […]
Background: In western blotting, separated proteins are transferred to a membrane and probed.

Data set [2] in a line: HCC mouse xenograft, tolerability (body, spleen, liver weight). In kind it is in vivo. The protocol: (§2) Animals were maintained, and all animal work were performed following the protocols approved by the Institutional Animal Care and Use Committee. The SNU-398 cell line was cultured as described above in ‘Cell Culture’. To establish the SNU-398 xenografts, NOD.Cg−Prkdc^sc^i^dIl2rg^tm^1^Wjl/Sz (NSG) female mice (6-8 weeks) were anesthetized using 2% isoflurane USP, and 0.5×10^6 SNU-398 cells in 200 μL of 1:1 RPMI:Matrigel were subcutaneously injected to the mouse flanks. When tumors were palpable, mice were randomized to receive either QE treatment or vehicle containing 5% DMSO, 12.5% Ethanol, and 12.5% Cremophor EL in 70% 1× PBS. Freshly prepared vehicle or QE-18-WG07 was administered by intraperitoneal (IP) injection, once daily (qd) at 10 mg/kg in the pilot study and 5, 15, and 45 mg/kg for dose-expansion studies. Before each drug injection, mouse weight and tumor volume were monitored. Mice were euthanized once tumors reached more than 1.5 cm in diameter. The tumors were harvested, imaged and snap-frozen for storage at −80° C. until later use.

Data set [3] concerns SNU-398 xenografts. In words: HCC mouse xenograft, anti-tumor efficacy. In kind it is in vivo. Conditions: for tumor shrinkage: 15 days. As to the method: as §2
In data set [4] the test system is SNU-398 cells. The data set can be described thus: CellTiter-Glo viability assay, SNU-398. In kind it is cell-based, human. The conditions noted are these: for IC50: read-out: IC50 of cell proliferation / viability. As to the method:
Cells were plated in RPMI culture media (40 μL) in 384-well white, flat-bottom plates (Corning) and incubated at 37° C. in a humidified atmosphere of 5% CO2 overnight. The numbers of cells per well were 1,500 for SNU-398 and SNU-182, 750 for SNU-387, SNU-449, SNU-475 and SNU-423, and 1,000 for H661 and H1299. After overnight incubation, 10 μL of drug (1% DMSO in RPMI) at designed concentrations were added to the cells. The cells were then incubated for 16, 24, 48, 72, or 96 h at 37° C. in a humidified atmosphere of 5% CO2 before CellTiter-Glo reagent (10 μL) was dispensed to the wells. The cells were incubated at room temperature for a minimum of 10 min. After that, luminescence readings were recorded by a Microplate Reader (PHERAstar or Tecan Infinite M200 Pro) according to the manufacturer's instruction for measuring the luminescence.

The subject of data set [5] is c-myc. The data set can be described thus: Immunoblot of c-myc (SALL4 downstream target) in SNU-398 cells. In kind it is cell-based, human. The conditions noted are these: Homo sapiens; SNU-398 HCC cells, 24 h treatment; read-out: suppression of SALL4 downstream target c-myc, IC50. The protocol: as §1

As usually defined, the EC50 is the concentration needed to bring the measured effect to its halfway point. With `COc1ccccc1NC(=O)Nc1ccc([N+](=O)[O-])cc1O` [QE-18-WG07], the DC50 in data set [1] was ~4.23 µM. For the same compound, the Dmax in data set [1] turned out to be 57%. Also, the “tolerability (animal weight preservation, normal spleen weight)” value in data set [2] (10 mg/kg daily, 10 days) is listed as “well tolerated”. Besides, the “weight loss in mice compared to vehicle” value in data set [2] (10 mg/kg q.d., 10 days) is reported as “did not induce significant weight loss”. In addition, the “tolerability (negligible weight loss, normal spleen and liver weight)” value in data set [2] (45 mg/kg daily, 2 weeks) was “well tolerated”. Further, the “weight loss in mice” value in data set [2] (5, 15 and 45 mg/kg q.d., 15 days) is “did not induce significant weight loss”. Further, the tumor shrinkage stood at 40% in data set [3] (5 mg/kg IP daily), 60% in data set [3] (15 mg/kg IP daily) and 70% in data set [3] (45 mg/kg IP daily). Moreover, the “reduction of tumor sizes vs vehicle control” value in data set [3] (10 mg/kg IP daily, 10 days) was 64%. In addition, the IC50 was 0.397 µM in data set [4] (72 h); 0.28 µM in data set [4] (Homo sapiens, SNU-398, 72 h, 72 h); ~5.12 µM in data set [5]. In addition, in data set [4] (Homo sapiens, 72 h, achieved at 1 μM, read-out: maximum growth inhibition Emax), the Emax at 1 µM was 90 to 100%. The EC50 in data set [4] (Homo sapiens, 72 h cell viability, read-out: half maximal growth inhibition EC50) is 0.31 µM.
